{"source": "patent US6596727B1", "about": "“Substituted pyrimidines, processes for their preparation, and their use as pesticides and fungicides” (priority 1992, dated 2003)", "key": {"[1]": {"test_system": "larvae (L3) of the species Nilaparvata lugens", "experiment": "Nilaparvata lugens larvae test on dipped rice plants", "type": "in vivo", "settings": "250 ppm of the active ingredient, 21° C., after 4 days", "source_text": "Rice seed is placed into glass culture dishes containing cotton wool and germinated under moist conditions and, after the stem has grown to a length of approx. 8 cm, it is dipped together with the leaves into the test solution. The test solution is allowed to run off from the treated rice plants, and the plants are transferred to culture containers and populated with batches of 10 larvae (L3) of the species Nilaparvata lugens, the individual test concentrations being kept separate from each other. After the sealed culture containers have been kept at 21° C., the mortality of the cicada larvae can be determined after 4 days.\nUnder these test conditions, the compounds according to Example No. 9, 25, 30, 93, 99, 432 have a 100% activity at a test concentration of 250 ppm of the active ingredient."}, "[2]": {"test_system": "tropical cattle ticks (Boophilus microplus)", "experiment": "In vitro test with tropical cattle ticks, inhibition of oviposition", "type": "in vivo", "settings": "500 ppm active substance; females immersed five minutes; two weeks after the treatment", "procedure": "In vitro test with tropical cattle ticks (Boophilus microplus)\nTo prepare a suitable preparation of active substance, the active substances were dissolved at a concentration of 10% (w/v) in a mixture composed of dimethylformamide (85 g), nonylphenol polyglycol ether (3 g) and oxethylated castor oil (7 g), and the resulting emulsion concentrates were diluted with water to a test concentration of 500 ppm.\nBatches of ten females of the tropical tick Boophilus microplus which had sucked themselves full were immersed for five minutes in these active substance dilutions. The ticks were subsequently dried on filter paper and then attached, by their backs, to an adhesive film for the purpose of oviposition. The ticks were kept in an incubator at 28° C. and an atmospheric humidity of 90%.\nAs a control, female ticks were merely immersed in water. The inhibition of oviposition two weeks after the treatment was used to assess the effectiveness. 100% mean that no ticks have deposited eggs, 0% means that all ticks have deposited eggs."}}, "data": [{"smiles": "COCc1ncnc(NC2CCC(C(C)(C)C)CC2)c1OC", "note": "(mixture of isomers) [Example 9]", "values": [{"measurement": "mortality of the cicada larvae (activity)", "setting": "[1]", "value": 100, "unit": "%"}]}, {"smiles": "CC(C)(C)C1CCC(Nc2ncnc3c2CCCC3)CC1", "note": "(mixture of isomers) [Example 10]", "values": [{"measurement": "inhibition of oviposition", "setting": "[2]", "value": 100, "unit": "%"}]}, {"smiles": "COCc1ncnc(NC2CCC(c3ccccc3)CC2)c1OC", "note": "(mixture of isomers) [Example 93]", "values": [{"measurement": "mortality of the cicada larvae (activity)", "setting": "[1]", "value": 100, "unit": "%"}]}, {"smiles": "CC(C)(C)C1CCC(Oc2ncnc3c2CCCC3)CC1", "note": "(stereo not drawn) [Example 19]", "values": [{"measurement": "inhibition of oviposition", "setting": "[2]", "value": 100, "unit": "%"}]}, {"smiles": "COCc1ncnc(NC2CCC(C(C)C)CC2)c1OC", "note": "(stereo not drawn) [Example 25]", "values": [{"measurement": "mortality of the cicada larvae (activity)", "setting": "[1]", "value": 100, "unit": "%"}]}, {"smiles": "CCC(C)(C)C1CCC(Nc2ncnc(COC)c2OC)CC1", "note": "(stereo not drawn) [Example 30]", "values": [{"measurement": "mortality of the cicada larvae (activity)", "setting": "[1]", "value": 100, "unit": "%"}, {"measurement": "inhibition of oviposition", "setting": "[2]", "value": 100, "unit": "%"}]}, {"smiles": "c1ccc(C2CCC(Oc3ncnc4c3CCCC4)CC2)cc1", "note": "(stereo not drawn) [Example 106]", "values": [{"measurement": "inhibition of oviposition", "setting": "[2]", "value": 100, "unit": "%"}]}, {"smiles": "CCc1ncnc(OC2CCC(c3ccc(OC(C)(C)C)cc3)CC2)c1Cl", "note": "(stereo not drawn) [Example 432]", "values": [{"measurement": "mortality of the cicada larvae (activity)", "setting": "[1]", "value": 100, "unit": "%"}]}]}
